Assay results published in PMC12955470, “A novel approach to combat Pseudomonas aeruginosa: repurposing pharmaceuticals for inhibition of phospholipase A” (Microbiology Spectrum, 2026).

Biological target: T1, PlaF (Pseudomonas aeruginosa, UniProt G3XCU7)
T1 construct: gene PA2949; purified PlaF (pBBR-plaFH6, His-tagged) reconstituted into phospholipid liposomes
Test: p-NPB esterase assay with purified PlaF; Michaelis-Menten kinetics (Km increased, vmax unchanged)
Format: biochemical

T1 sequence (G3XCU7 entry or part of it): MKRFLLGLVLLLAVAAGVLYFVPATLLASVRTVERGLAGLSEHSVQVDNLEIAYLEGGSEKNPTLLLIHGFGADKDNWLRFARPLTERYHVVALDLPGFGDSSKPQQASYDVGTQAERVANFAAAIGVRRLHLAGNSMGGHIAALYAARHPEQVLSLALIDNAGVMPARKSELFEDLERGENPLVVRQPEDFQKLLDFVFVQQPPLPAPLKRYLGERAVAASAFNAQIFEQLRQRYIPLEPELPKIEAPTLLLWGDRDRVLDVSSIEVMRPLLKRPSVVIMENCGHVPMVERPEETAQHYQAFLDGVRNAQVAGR

Structure (SMILES)	inhibition at 69.2 µM [%]	inhibition at 400 µM [%]
O=C(/C=C/c1ccc(/C=C/C(=O)Nc2ccc(C3=NCCN3)cc2)cc1)Nc1ccc(C2=NCCN2)cc1 [GW4869]	~30	
CCN(CC)CCN(Cc1ccc(-c2ccc(C(F)(F)F)cc2)cc1)C(=O)Cn1c(SCc2ccc(F)cc2)nc(=O)c2c1CCC2 [darapladib]		~50
COCCN1CCC(N(Cc2ccc(-c3ccc(C(F)(F)F)cc3)cc2)C(=O)Cn2c(SCc3cccc(F)c3F)cc(=O)c3ccccc32)CC1 [rilapladib]		~50
